# Test results: publication PMC2533354, “Highly specific inhibition of leukaemia virus membrane fusion by interaction of peptide antagonists with a conserved region of the coiled coil of envelope” (Retrovirology, 2008)
# Where a SMILES comes first, the peptide text is derived from it.
# Columns and labels:
# BLV envelope = target: T1, BLV envelope (Bovine leukemia virus, UniProt P51519); experiment: Syncytium interference assay, BLV envelope-expressing HeLa effector cells; type: cell-based
# T1 construct: A fragment encompassing the entire BLV envelope open reading frame; expressed in transfected cells; host or cells: HeLa (co-transfected with pRSV-Rev)
# Protocol: (§1) Briefly, HeLa cells for use as effector cells were transfected with the envelope expression vector pHTE-1 or with equal amounts of pCMV-BLVenv-RRE and pRSV-Rev using the Genejuice™ transfection reagent (Novagen) in accordance with the manufacturer's instructions. 24 h later, 3 × 10^5 effector cells were added to 7 × 10^5 untransfected HeLa target cells in six-well dishes (Nunc). Where appropriate, the co-culture was incubated in the presence of peptides at the concentrations specified. To assess the ability of the peptides to inhibit fusion induced by virally expressed BLV envelope, 2 × 10^5 BLV-infected FLK cells were used as effectors and added to 8 × 10^5 uninfected HeLa cells. After incubation at 37°C for 16 h, cells were washed twice with PBS and fixed in PBS + 3% paraformaldehyde. Assays were performed in triplicate and the number of syncytia (defined as multinucleated cells with 4 or more nuclei) from 10 low-power fields (LPF) per replicate was scored by light microscopy; some assays were stained using Giemsa. A syncytium formation value of 100% is defined as the number of syncytia formed in the absence of peptide but in the presence of 1.5% DMSO.
# [1] = Relative peptide solubility by laser nephelometry; type: physicochemical; conditions: filtered PBS with 1.5 % DMSO, maximum solubility in aqueous solution, two-fold serial dilution from DMSO stock, 200 μl, 1 hr at room temperature, laser nephelometry (forward scattered light, NEPHELOstar), duplicate wells, in solution if reading up to 3-fold the DMSO control
# Protocol: A two-fold serial dilution of peptide in DMSO was performed, and added in duplicate to 96-well microplates. Filtered PBS was added to give a total volume of 200 μl and a final DMSO concentration of 1.5 % in all wells. The plates were incubated at room temperature for 1 hr and the relative solubility of peptides was established by measuring forward scattered light using a NEPHELOstar laser-based microplate nephelometer (BMG LABTECH). Wells containing PBS and 1.5 % DMSO only were used as blanks. Data analysis was carried out using ActivityBase, and peptides giving readings up to and including 3-fold higher than the average reading for the DMSO control were considered to be in solution at the concentrations specified.
# [2] = test system: virally expressed BLV envelope (BLV-infected FLK cells); conditions: chronically BLV infected FLK effector cells + HeLa target cells; result in words (Figure 3C)
# Protocol: as §1
# HTLV-1 envelope = target: T2, HTLV-1 envelope (Human T-cell leukemia virus 1, UniProt P03381); experiment: Syncytium interference assay, HTLV-1 envelope-expressing HeLa effector cells; type: cell-based; conditions: concentrations up to 20 μM and above; result in words
# T2 construct: expressed in transfected cells; host or cells: HeLa
# T2 sequence (P03381 313-488): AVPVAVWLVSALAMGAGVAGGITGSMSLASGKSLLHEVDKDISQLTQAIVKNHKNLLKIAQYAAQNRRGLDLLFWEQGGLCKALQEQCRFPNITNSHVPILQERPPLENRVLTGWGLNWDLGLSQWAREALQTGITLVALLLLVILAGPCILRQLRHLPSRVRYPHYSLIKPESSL
# Protocol: as §1
# T1 sequence (P51519 302-515): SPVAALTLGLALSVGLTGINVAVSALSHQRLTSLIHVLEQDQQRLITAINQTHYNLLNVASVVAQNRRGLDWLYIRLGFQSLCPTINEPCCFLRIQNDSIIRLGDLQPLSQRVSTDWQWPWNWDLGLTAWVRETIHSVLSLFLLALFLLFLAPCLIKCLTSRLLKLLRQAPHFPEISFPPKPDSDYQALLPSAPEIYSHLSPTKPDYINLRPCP
SMILES,"Inhibition of membrane fusion induced by BLV envelope (BLV envelope; concentrations up to 15 μM and above, result in words)",solubility kinetic at 1 h [1] [µM],Inhibition of membrane fusion induced by virally expressed BLV envelope [2],Inhibition of membrane fusion induced by HTLV-1 envelope (HTLV-1 envelope),"Block of syncytium formation (BLV envelope; peptide at 20 μM, BLV envelope-expressing HeLa effectors (Figure 4B)) [%]"
"CC[C@H](C)[C@H](NC(=O)[C@H](CO)NC(=O)[C@@H](NC(=O)[C@H](Cc1c[nH]cn1)NC(=O)[C@H](CO)NC(=O)[C@H](CC(N)=O)NC(=O)[C@@H](NC(=O)[C@@H](NC(=O)[C@H](CC(N)=O)NC(=O)[C@H](CC(C)C)NC(=O)[C@H](Cc1ccccc1)NC(=O)[C@H](CS)NC(=O)[C@H](CS)NC(C)=O)[C@@H](C)CC)[C@@H](C)O)C(C)C)C(=O)N[C@@H](CC(C)C)C(=O)N[C@@H](CCC(N)=O)C(=O)N[C@@H](CCC(=O)O)C(=O)N[C@@H](CCCNC(=N)N)C(=O)N1CCC[C@H]1C(=O)N1CCC[C@H]1C(=O)N[C@@H](CC(C)C)C(=O)N[C@@H](CCC(=O)O)C(=O)N[C@@H](CC(N)=O)C(=O)N[C@@H](CCCNC(=N)N)C(=O)N[C@H](C(=O)N[C@@H](CC(C)C)C(=O)N[C@H](C(=O)NCC(=O)N[C@@H](Cc1c[nH]c2ccccc12)C(=O)NCC(=O)N[C@@H](CC(C)C)C(N)=O)[C@@H](C)O)C(C)C [P^cr-400, reference compound] (Ac-CCFLNITNSHVSILQERPPLENRVLTGWGL-NH2)",failed to inhibit,> 90,did not block,–,–
CC[C@H](C)[C@H](NC(=O)[C@H](CCCNC(=N)N)NC(=O)[C@H](CC(C)C)NC(=O)[C@H](Cc1ccccc1)NC(=O)[C@H](CS)NC(=O)[C@H](CS)NC(C)=O)C(=O)N[C@@H](CCC(N)=O)C(=O)N[C@@H](CC(N)=O)C(=O)N[C@@H](CC(=O)O)C(=O)N[C@@H](CO)C(=O)N[C@H](C(=O)N[C@H](C(=O)N[C@@H](CCCNC(=N)N)C(=O)N[C@@H](CC(C)C)C(=O)NCC(=O)N[C@@H](CC(=O)O)C(=O)N[C@@H](CC(C)C)C(=O)N[C@@H](CCC(N)=O)C(=O)N1CCC[C@H]1C(=O)N[C@@H](CC(C)C)C(=O)N[C@@H](CO)C(=O)N[C@@H](CCC(N)=O)C(=O)N[C@@H](CCCNC(=N)N)C(=O)N[C@H](C(=O)N[C@@H](CO)C(=O)N[C@H](C(=O)N[C@@H](CC(=O)O)C(=O)N[C@@H](Cc1c[nH]c2ccccc12)C(=O)N[C@@H](CCC(N)=O)C(N)=O)[C@@H](C)O)C(C)C)[C@@H](C)CC)[C@@H](C)CC [P^BLV-391] (Ac-CCFLRIQNDSIIRLGDLQPLSQRVSTDWQ-NH2),–,> 90,robustly antagonized,failed to inhibit,> 95
